Source: patent US9079905B2, “Compounds for the treatment of CNS disorders” (Boehringer Ingelheim International GmbH, priority 2008, dated 2015)

Target: T1, human PDE9A2 (Homo sapiens, UniProt O76083)
T1 construct: made in house; host or cells: Sf9 insect cells (infected; crude lysate used as enzyme source)
Assay: PDE9A2 enzymatic activity assay (scintillation proximity assay)
Type: biochemical
Details: for IC50: specific IC50 value is within the given range; for inhibition at 10 µM / % Inhibition of PDE 9A2: at 10 μM
Experimental: The PDE9A2 enzymatic activity assay was run as scintillation proximity assay (SPA), in general according to the protocol of the manufacturer (Amersham Biosciences, product number: TRKQ 7100).
As enzyme source, lysate (PBS with 1% Triton X-100 supplemented with protease inhibitors, cell debris removed by centrifugation at 13.000 rpm for 30 min) of SF 9 cell expressing the human PDE9A2 was used. The total protein amount included in the assay varied upon infection and production efficacy of the SF9 cells and lay in the range of 0.1-100 ng.
In general, the assay conditions were as follows: • total assay volume: 40 microliter • protein amount: 0.1-50 ng • substrate concentration (cGMP): 20 nanomolar; ˜1 mCi/1 • incubation time: 60 min at room temperature • final DMSO concentration: 0.2-1
The assays were run in 384-well format. The test reagents as well as the enzyme and the substrate were diluted in assay buffer. The assay buffer contained 50 mM Tris, 8.3 mM MgCl2, 1.7 mM EGTA, 0.1% BSA, 0.05% Tween 20; the pH of assay buffer was adjusted to 7.5. The reaction was stopped by applying a PDE9 specific inhibitor (e.g. compounds according to WO04099210 or WO04099211) in excess.
The activity of the positive control (minus the negative control=background) is set to 100% and activity in the presence of test compound is expressed relative to these 100%. Within this setting, an inhibition above 100% might be possible due to the nature of the variation of the positive control within the assay. In the following inhibition of PDE 9A2 is presented for a concentration at 10 μM, if not indicated otherwise.
IC50 can be calculated with GraphPadPrism or other suited software setting the positive control as 100 and the negative control as 0. For calculation of IC50 dilutions of the test compounds (substrates) are to be selected and tested following the aforementioned protocol.

[1] = read-out: % Inhibition of PDE 9A2

T1 sequence (O76083 1-533 isoform O76083-2): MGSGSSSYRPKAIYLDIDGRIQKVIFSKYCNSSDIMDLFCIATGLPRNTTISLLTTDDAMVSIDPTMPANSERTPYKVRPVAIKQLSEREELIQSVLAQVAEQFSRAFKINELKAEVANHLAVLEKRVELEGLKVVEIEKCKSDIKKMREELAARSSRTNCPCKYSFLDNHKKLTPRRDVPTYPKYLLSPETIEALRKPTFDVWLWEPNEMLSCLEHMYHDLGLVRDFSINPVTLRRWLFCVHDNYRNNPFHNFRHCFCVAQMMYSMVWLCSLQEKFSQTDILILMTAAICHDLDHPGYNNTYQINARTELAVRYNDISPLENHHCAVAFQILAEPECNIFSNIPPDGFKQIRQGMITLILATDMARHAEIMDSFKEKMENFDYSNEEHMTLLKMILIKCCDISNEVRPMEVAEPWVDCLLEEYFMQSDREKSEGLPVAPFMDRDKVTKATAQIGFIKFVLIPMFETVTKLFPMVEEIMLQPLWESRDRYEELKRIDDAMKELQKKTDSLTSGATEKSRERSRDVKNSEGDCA

SMILES | inhibition at 10 µM [1] [%] | IC50 [nM] | inhibition at 3.3 µM (at 3.3 μM, read-out: % Inhibition of PDE 9A2) [%] | % Inhibition of PDE 9A2 [%]
O=C(NC1CCCC(n2ncc3c(=O)[nH]c(CC4CCCC4)nc32)C1)c1ccccc1 (racemic) [Example 51] | 98 | 101 to 1500 | – | –
CC1(C)CC(Cc2nc3c(cnn3C3CCC(F)(F)CC3)c(=O)[nH]2)CO1 (racemic) [Example 52] | 98 | 1 to 100 | – | –
O=c1[nH]c(C(F)c2ccccc2-c2ccncc2)nc2c1cnn2C1CCC(F)(F)CC1 (racemic) [Example 72-10] | – | 101 to 1500 | 52 | –
Cn1cc(-c2ccccc2C(F)c2nc3c(cnn3C3CCC(F)(F)CC3)c(=O)[nH]2)cn1 (racemic) [Example 72-11] | 84 | 1 to 100 | – | –
NC1CCCC(n2ncc3c(=O)[nH]c(CC4CCCC4)nc32)C1 (racemic) [Example 86] | 77 | 101 to 1500 | – | –
NC1CCCC(n2ncc3c(=O)[nH]c(Cc4ccccc4OC(F)(F)F)nc32)C1 (racemic) [Example 87] | 81 | 101 to 1500 | – | –
O=c1[nH]c(C(F)c2ccccc2-n2cccn2)nc2c1cnn2C1CCC(F)(F)CC1 (racemic) [Example 88] | 93 | 101 to 1500 | – | –
CC(Cc1nc2c(cnn2C2CCC(F)(F)CC2)c(=O)[nH]1)C(F)(F)F (single isomer, unassigned) [Example 47] | 98 | 1 to 100 | – | –
CC(Cc1nc2c(cnn2C2CCC(F)(F)CC2)c(=O)[nH]1)C(F)(F)F (single isomer, unassigned) [Example 48] | – | 101 to 1500 | – | 96
CC1(C)CC(Cc2nc3c(cnn3C3CCC(F)(F)CC3)c(=O)[nH]2)CO1 (single isomer, unassigned) [Example 77] | 100 | 1 to 100 | – | –
O=c1[nH]c(C(F)c2ccccc2-n2cccn2)nc2c1cnn2C1CCC(F)(F)CC1 (single isomer, unassigned) [Example 92] | 93 | 101 to 1500 | – | –
CCC(Cc1nc2c(cnn2C2CCC(F)(F)CC2)c(=O)[nH]1)C(F)(F)F (single isomer, unassigned) [Example 101] | 100 | 1 to 100 | – | –
CCC(Cc1nc2c(cnn2C2CCC(F)(F)CC2)c(=O)[nH]1)C(F)(F)F (single isomer, unassigned) [Example 102] | – | 101 to 1500 | – | 96
O=c1[nH]c(Cc2ccccn2)nc2c1cnn2C1CCC(F)(F)CC1 [Example 1] | 98 | 1 to 100 | – | –
O=c1[nH]c(CC2CC2)nc2c1cnn2C1CCC(F)(F)CC1 [Example 2] | 101 | 1 to 100 | – | –
O=c1[nH]c(Cc2ccccc2OC(F)(F)F)nc2c1cnn2C1CCC(F)(F)CC1 [Example 3] | 94 | 1 to 100 | – | –
O=c1[nH]c(Cc2ccccc2)nc2c1cnn2C1CCC(F)(F)CC1 [Example 4] | 100 | 1 to 100 | – | –
O=c1[nH]c(Cc2cccc(Cl)c2)nc2c1cnn2C1CCC(F)(F)CC1 [Example 5] | 98 | 1 to 100 | – | –
O=c1[nH]c(Cc2cccc(C(F)(F)F)c2)nc2c1cnn2C1CCC(F)(F)CC1 [Example 6] | 98 | 1 to 100 | – | –
O=c1[nH]c(Cc2cc(F)cc(F)c2)nc2c1cnn2C1CCC(F)(F)CC1 [Example 7] | 96 | 1 to 100 | – | –
CCCCc1nc2c(cnn2C2CCC(F)(F)CC2)c(=O)[nH]1 [Example 8] | 98 | 1 to 100 | – | –
CC(C)Cc1nc2c(cnn2C2CCC(F)(F)CC2)c(=O)[nH]1 [Example 9] | 97 | 1 to 100 | – | –
CC1(C)CC(n2ncc3c(=O)[nH]c(CC4CC4)nc32)CC(C)(C)C1 [Example 13] | 98 | 101 to 1500 | – | –
O=c1[nH]c(CC2CCCC2)nc2c1cnn2C1CCC(F)(F)CC1 [Example 20] | 104 | 1 to 100 | – | –

SMILES | inhibition at 10 µM [1] [%] | IC50 [nM] | inhibition at 3.3 µM (at 3.3 μM, read-out: % Inhibition of PDE 9A2) [%] | % Inhibition of PDE 9A2 [%]
CCC(CC)Cc1nc2c(cnn2C2CCC(F)(F)CC2)c(=O)[nH]1 [Example 21] | 103 | 1 to 100 | – | –
CCCc1nc2c(cnn2C2CCC(F)(F)CC2)c(=O)[nH]1 [Example 22] | 104 | 1 to 100 | – | –
O=c1[nH]c(CC2CCOC2)nc2c1cnn2C1CCC(F)(F)CC1 (stereo not drawn) [Example 23] | 100 | 101 to 1500 | – | –
COc1ccc(Cc2nc3c(cnn3C3CCC(F)(F)CC3)c(=O)[nH]2)cc1 [Example 26] | 100 | 1 to 100 | – | –
N#Cc1ccccc1Cc1nc2c(cnn2C2CCC(F)(F)CC2)c(=O)[nH]1 [Example 31] | 99 | 1 to 100 | – | –
O=c1[nH]c(CCCC(F)(F)F)nc2c1cnn2C1CCC(F)(F)CC1 [Example 32] | 98 | 1 to 100 | – | –
O=c1[nH]c(Cc2ccccc2Br)nc2c1cnn2C1CCC(F)(F)CC1 [Example 33] | 98 | 1 to 100 | – | –
O=c1[nH]c(CC2CCC(F)(F)CC2)nc2c1cnn2C1CCC(F)(F)CC1 [Example 34] | 96 | 101 to 1500 | – | –
Cc1cccnc1Cc1nc2c(cnn2C2CCC(F)(F)CC2)c(=O)[nH]1 [Example 35] | 94 | 1 to 100 | – | –
O=c1[nH]c(Cc2ccccc2I)nc2c1cnn2C1CCC(F)(F)CC1 [Example 36] | 99 | 1 to 100 | – | –
COc1cccc(Cl)c1Cc1nc2c(cnn2C2CCC(F)(F)CC2)c(=O)[nH]1 [Example 37] | 97 | 1 to 100 | – | –
O=C(O)Cc1ccccc1Cc1nc2c(cnn2C2CCC(F)(F)CC2)c(=O)[nH]1 [Example 38] | 85 | 101 to 1500 | – | –
CC(Cc1nc2c(cnn2C2CCC(F)(F)CC2)c(=O)[nH]1)C(=O)N1CCCCC1 (stereo not drawn) [Example 39] | 84 | 101 to 1500 | – | –
O=c1[nH]c(Cc2ccc(F)cc2Br)nc2c1cnn2C1CCC(F)(F)CC1 [Example 44] | 92 | 101 to 1500 | – | –
O=c1[nH]c(Cc2cc(F)ccc2Br)nc2c1cnn2C1CCC(F)(F)CC1 [Example 45] | 97 | 1 to 100 | – | –
O=c1[nH]c(Cc2ncccc2Br)nc2c1cnn2C1CCC(F)(F)CC1 [Example 46] | 98 | 1 to 100 | – | –
COc1ccccc1Cc1nc2c(cnn2C2CCC(F)(F)CC2)c(=O)[nH]1 [Example 48-3] | 95 | 1 to 100 | – | –
COc1ccc(F)cc1Cc1nc2c(cnn2C2CCC(F)(F)CC2)c(=O)[nH]1 [Example 48-4] | 99 | 1 to 100 | – | –
COc1cncc(-c2ccccc2Cc2nc3c(cnn3C3CCC(F)(F)CC3)c(=O)[nH]2)c1 [Example 53] | 100 | 1 to 100 | – | –
N#Cc1ccc(-c2ccccc2Cc2nc3c(cnn3C3CCC(F)(F)CC3)c(=O)[nH]2)cn1 [Example 54] | 102 | 1 to 100 | – | –
COc1cc(-c2ccccc2Cc2nc3c(cnn3C3CCC(F)(F)CC3)c(=O)[nH]2)ccn1 [Example 55] | 100 | 1 to 100 | – | –
COc1ccc(-c2ccccc2Cc2nc3c(cnn3C3CCC(F)(F)CC3)c(=O)[nH]2)cn1 [Example 56] | 99 | 1 to 100 | – | –
N#Cc1ccc(-c2ccc(F)cc2Cc2nc3c(cnn3C3CCC(F)(F)CC3)c(=O)[nH]2)cn1 [Example 57] | 101 | 1 to 100 | – | –
COc1cncc(-c2ccc(F)cc2Cc2nc3c(cnn3C3CCC(F)(F)CC3)c(=O)[nH]2)c1 [Example 58] | 101 | 1 to 100 | – | –
